Converted amounts (≈) assume the structure as drawn. Where two headings read alike, the source gives them in different places.
Tests used:
Epstein-Barr Virus (EBV) = assay: EBV immunofluorescence assay in DAUDI cells (P3HR-1 strain); assay type: cell-based; conditions: for EC90: human gammaherpesvirus 4; for EBV EC50: Table 4
Description: The immunofluorescence assay, using monoclonal antibodies, for Epstein-Barr Virus (EBV) was performed as follows: DAUDI cells were infected with the P3HR-1 strain of EBV and the test drug was added after adsorption (45 min. at 37° C.) and washing of the cell cultures. These cultures were then incubated for 2 days in complete medium to allow viral gene expression. Following the 48 h incubation period, the number of cells in each sample were counted and smears were made. Monoclonal antibodies to the different early antigen (EA) components and VCA were than added to the cells, incubated and washed. This was followed by the addition of a fluorescein conjugated rabbit anti mouse Ig antibodies. The number of fluorescence positive cells in the smears were counted and the total number of cells in the cultures positive for EA or VCA were then calculated and compared.

VZV (Ellen) = assay: CPE inhibition assay VZV (Ellen) in HFF cells; assay type: cell-based, varicella zoster virus; conditions: for EC50: Human alphaherpesvirus 3, HFF
Description: (§1) Cytopathic effect (CPE) inhibition assays for HSV-1, HSV-2, HCMV and VZV were performed as follows: Low passage human foreskin fibroblasts (HFF) cells were seeded into 96 well tissue culture plates 24 h prior to use at a cell concentration of 2.5×10^4 cells per mL in 0.1 mL of minimal essential medium (MEM) supplemented with 10% fetal bovine serum (FBS). The cells were then incubated for 24 h at 37° C. in a CO2 incubator. After incubation, the medium was removed and 100 μL of MEM containing 2% FBS was added to all but the first row. In the first row, 125 μL of experimental drug was added in triplicate wells. Medium alone was added to both cell and virus control […]. After incubation, the medium was removed and 100 μl of MEM containing 2% FBS was added to all but the first row. Medium alone was added to both cell and virus control wells. 125 μl of Experimental drug was added in triplicate wells. The drug in the first row of wells was then diluted serially 1:5 throughout the remaining wells by transferring 25 μL using the Cetus Liquid Handling Machine. After dilution of drugs, 100 μL of the appropriate virus concentration was added to each well, excluding the cell control wells which received 100 μL of MEM. For HSY-1 and HSV-2 assays, the virus concentration utilized was 1000 PFU's per well. For CMV and VZV assays, the virus concentration added was 2500 PFU's per well. The plates were then incubated at 37° C. in a CO2 incubator for 3 days for HSV-1 and HSV-2, 10 days for VZV, or 14 days for CMV. After the incubation period, media was aspirated and the cells stained with a 0.1% crystal violet solution for 30 min. The stain was then removed and the plates were allowed to dry 24 h and then read on a Skatron Plate Reader at 620 nm.

HSV-1 (KOS) HSV-TK+ = HSV-1 (KOS) HSV-TK+ antiviral assay; assay type: cell-based, Herpes simplex virus type-1; conditions: Table 4
Description: as §1

HSV-1 (E-377) = assay: CPE inhibition assay HSV-1 (E-377) in HFF cells; assay type: cell-based, Herpes simplex virus type-1; conditions: for EC50: Human alphaherpesvirus 1, HFF
Description: as §1

HSV-2 (MS) = assay: CPE inhibition assay HSV-2 (MS) in HFF cells; assay type: cell-based, Herpes simplex virus type-2; conditions: for EC50: Human alphaherpesvirus 2, HFF
Description: as §1

[1] = Cell cytotoxicity in Vero cells; assay type: cell-based; conditions: African green monkey, Vero cells
Description: (§2) The compounds were assayed for a) their ability to inhibit DHBV DNA replication in duck hepatocytes, b) their ability to inhibit HBV DNA replication in HepG2 2.2.15 cells, c) the cell cytotoxicity in Vero cells, the cell viability in HFF cells, d) the cell proliferation in HFF cells, and e) the T cell proliferation (purified T cells, PHA stimulated). 3-TC was used as a control.

HSV-1 (KOSSB) HSV-TK− = assay: microbe, parasite or virus in culture; assay type: cell-based, Herpes simplex virus type-1; conditions: for HSV-1 (KOSSB) HSV-TK− EC50: Table 4
Description: as §1, with “The” for “Cytopathic effect (CPE) inhibition assays for HSV-1, HSV-2, HCMV and VZV were performed as follows: Low passage human foreskin fibroblasts (HFF) cells were seeded into 96 well tissue culture plates 24 h prior to use at a cell concentration of 2.5×10^4 cells per mL in 0.1 mL of minimal essential medium (MEM) supplemented with 10% fetal bovine serum (FBS). The”

[2] = system: duck hepatitis B virus (DHBV); assay: DHBV DNA replication in primary duck hepatocytes (dot blot hybridization); assay type: cell-based; conditions: for inhibition at 10 µg/mL: read-out: % Inh. of DHBV DNA in duck hepatocytes @ 10 μg/ml
Description: A series of compounds were synthesized and assayed for activity against duck hepatitis B virus (DHBV). […] Test compounds were added to the hepatocyte cultures on day 2 and maintained in culture with media changed every second day until day 12. Cell were harvested at day 14 and lysed with buffer containing 1% SDS. DNA was isolated from the lysate and dot blot hybridization was performed using a DHBV (32P) DNA probe. […]
as §2

human HBV = assay: HBV DNA replication in HepG2 2.2.15 cells; assay type: cell-based, hepatitis B virus; conditions: for EC50: Table 3a, read-out: % Inhibition of human HBV DNA replication in HepG2 2.2.15 cells EC50
Description: as §2, with “control. Additional compounds described below in the Preparative Examples section were also tested, and the results are shown in Tables 2-4 below. The reference numbers for the compounds are found in the Preparative Examples.” for “control.”

HCMV (AD169) = assay: CPE inhibition assay HCMV (AD169) in HFF cells; assay type: cell-based, human cytomegalovirus; conditions: for EC50: Human betaherpesvirus 5, AD169, HFF
Description: as §1

[3] = Duck hepatitis B virus, Hepatocyte
[4] = Duck hepatitis B virus, Hepatocyte, Table 2, value in brackets, read-out: DHBV DNA in duck hepatocytes [EC50, μg/ml]

Compound: Nc1nc2c(ncn2COCCO)c(=O)[nH]1 [Acyclovir, acyclovir, reference compound]
- EBV EC90 (Epstein-Barr Virus (EBV); Table 4, in parentheses): > 50 µg/mL
- EBV EC90 (Epstein-Barr Virus (EBV); Table 5, in parentheses): (EC90 = >50) μg/ml
- EC50 (Epstein-Barr Virus (EBV); human gammaherpesvirus 4, Table 3a, read-out: EBV EC50): 1 µg/mL (≈ 4.44 µM)
- EC50 (Epstein-Barr Virus (EBV); human gammaherpesvirus 4, Table 4, read-out: EBV EC50): 1.4 µg/mL (≈ 6.22 µM)
- EC50 (Epstein-Barr Virus (EBV); human gammaherpesvirus 4, Table 5, read-out: EBV EC50): 1 µg/mL (≈ 4.44 µM)
- EC50 (Epstein-Barr Virus (EBV); human gammaherpesvirus 4, running text, read-out: anti EBV activity EC50): 1 µg/mL (≈ 4.44 µM)
- EC90 (Epstein-Barr Virus (EBV); Table 3a, in parentheses, read-out: EBV EC90): > 50 µg/mL
- EC90 (Epstein-Barr Virus (EBV); read-out: anti EBV activity EC90): > 50 µg/mL
- EC50 (VZV (Ellen); Table 2): 0.6 µg/mL
- EC50 (VZV (Ellen); Table 3a): 0.03 µg/mL
- EC50 (VZV (Ellen); Table 3b): 3.96 µM
- EC50 (VZV (Ellen); Table 4): 0.08 µg/mL
- EC50 (HSV-1 (KOS) HSV-TK+; Human alphaherpesvirus 1): < 1 µg/mL
- EC50 (HSV-1 (E-377); Table 3b): 3080 nM
- EC50 (HSV-1 (E-377); Table 4): 0.2 µg/mL
- EC50 (HSV-2 (MS); Table 3b): 6.16 µM
- EC50 (HSV-2 (MS); Table 4): 0.6 µg/mL
- CC50 ([1]; Table 3b): > 400 µM
- EC50 (HSV-1 (KOSSB) HSV-TK−; Human alphaherpesvirus 1, read-out: HSV-1 (KOSSB) HSV-TK− EC50, μg/ml): > 100 µg/mL

Compound: C=Cc1cn(COC(CO)CO)c(=O)[nH]c1=O [Compound 9a, 1-[(2-Hydroxy-1-(hydroxymethyl)ethoxy)methyl]-5-vinyluracil]
- inhibition at 10 µg/mL [2, 3]: 82%
- EC50 [2, 4]: 0.3 to 1 µg/mL
- CC50 ([1]; Table 2): > 100 µg/mL

Compound: O=c1[nH]c(=O)n(CCC(CO)CO)cc1I [Compound 19, 1-[4-Hydroxy-3-(hydroxymethyl)-1-butyl]-5-iodouracil]
- inhibition at 0.01 µg/mL (human HBV; Hepatitis B virus, HepG2 2.2.15, read-out: % Inh. of human HBV DNA replication in HepG2 2.2.15 cells @ 0.01 μg/ml (right)): 18.1%
- inhibition at 0.1 µg/mL (human HBV; Hepatitis B virus, HepG2 2.2.15, read-out: % Inh. of human HBV DNA replication in HepG2 2.2.15 cells @ 0.1 μg/ml (left)): 69.1%
- inhibition at 10 µg/mL [2, 3]: 65.2%
- CC50 ([1]; Table 2): > 200 µg/mL

Compound: C=Cc1cn(CCC(CO)CO)c(=O)[nH]c1=O [Compound 20, 1-[4-Hydroxy-3-(hydroxymethyl)-1-butyl]-5-vinyluracil]
- inhibition at 10 µg/mL [2, 3]: 80%
- EC50 [2, 4]: 1 to 3 µg/mL
- CC50 ([1]; Table 2): > 100 µg/mL

Compound: Nc1nc(O)c2ncn(COC(CO)CO)c2n1 [Gancyclovir, ganciclovir, reference compound]
- EC50 (VZV (Ellen); Table 4): 0.1 µg/mL
- EC50 (HCMV (AD169); Table 2): 0.06 µg/mL (≈ 0.235 µM)
- EC50 (HCMV (AD169); Table 4, read-out: HCMV (AD-169) EC50): 0.1 µg/mL (≈ 0.392 µM)

Compound: [N-]=[N+]=NC1C(Cl)C(=O)NC(=O)N1[C@H]1C[C@H](O)[C@@H](CO)O1 (stereo partly shown) [RB-10, 5-Chloro-6-azido-5,6-dihydro-2′-deoxyuridine]
- EC50 (VZV (Ellen); Table 3b): 9.8 µM
- EC50 (HSV-1 (E-377); Table 3b): 330 nM
- EC50 (HSV-2 (MS); Table 3b): 1.6 µM
- CC50 ([1]; Table 3b): > 327 µM

Compound: (5R,6R) 5-fluoro-O^6-5′-cyclo-5,6-dihydro-2′-deoxythymidine [Compound R-25]
- EBV EC50 (Epstein-Barr Virus (EBV)): 0.6 to 3.0 µg/mL
- VZV (Ellen) EC50 (VZV (Ellen); Table 4): >100 µg/mL
- HSV-1 (KOS) HSV-TK+ EC50 (HSV-1 (KOS) HSV-TK+): >25 µg/mL
- HSV-1 (E-377) EC50, μg/ml (HSV-1 (E-377); Table 4): >100 μg/ml
- HSV-2 (MS) EC50 (HSV-2 (MS); Table 4): >100 µg/mL
- HCMV (AD-169) EC50 (HCMV (AD169); Table 4): >100 µg/mL
- HSV-1 (KOSSB) HSV-TK− EC50 (HSV-1 (KOSSB) HSV-TK−): >50 µg/mL

Compound: (5R,6S) 5-fluoro-O^6-5′-cyclo-5,6-dihydro-2′-deoxythymidine [Compound R-24]
- EBV EC50 (Epstein-Barr Virus (EBV)): 0.6 to 2.8 µg/mL
- EBV EC90 (Epstein-Barr Virus (EBV); Table 4, in parentheses): (EC90 = 3.8) μg/ml
- VZV (Ellen) EC50 (VZV (Ellen); Table 4): >100 µg/mL
- HSV-1 (KOS) HSV-TK+ EC50 (HSV-1 (KOS) HSV-TK+): >25 µg/mL
- HSV-1 (E-377) EC50, μg/ml (HSV-1 (E-377); Table 4): >100 μg/ml
- HSV-2 (MS) EC50 (HSV-2 (MS); Table 4): >100 µg/mL
- HCMV (AD-169) EC50 (HCMV (AD169); Table 4): >100 µg/mL
- HSV-1 (KOSSB) HSV-TK− EC50 (HSV-1 (KOSSB) HSV-TK−): >50 µg/mL

Compound: (5S,6R) 5-fluoro-O^6-5′-cyclo-5,6-dihydro-2′-deoxythymidine [Compound R-23]
- EBV EC50 (Epstein-Barr Virus (EBV)): 0.1 to 1.4 µg/mL
- EBV EC90 (Epstein-Barr Virus (EBV); Table 4, in parentheses): (EC90 = 7.3) μg/ml
- VZV (Ellen) EC50 (VZV (Ellen); Table 4): >100 µg/mL
- HSV-1 (KOS) HSV-TK+ EC50 (HSV-1 (KOS) HSV-TK+): >25 µg/mL
- HSV-1 (E-377) EC50, μg/ml (HSV-1 (E-377); Table 4): >100 μg/ml
- HSV-2 (MS) EC50 (HSV-2 (MS); Table 4): >100 µg/mL
- HCMV (AD-169) EC50 (HCMV (AD169); Table 4): >100 µg/mL
- HSV-1 (KOSSB) HSV-TK− EC50 (HSV-1 (KOSSB) HSV-TK−): >50 µg/mL

Compound: (5S,6S)5-Bromo-O^6-5′-cyclo-5,6-dihydro-5-ethyl-2′-deoxyuridine [Compound R-9]
- HSV-1 (KOS) HSV-TK+ EC50 (HSV-1 (KOS) HSV-TK+): 1 to 5 µg/mL
- HSV-1 (E-377) EC50, μg/ml (HSV-1 (E-377); Table 4): 4.0 μg/ml
- HSV-2 (MS) EC50 (HSV-2 (MS); Table 4): 10 µg/mL
- HSV-1 (KOSSB) HSV-TK− EC50 (HSV-1 (KOSSB) HSV-TK−): 10 to 25 µg/mL

Compound: [(+)(6R)]-5-bromo-6-ethoxy-5,6dihydro-3′-fluoro-2′,3′-dideoxyuridine [RB-5]
- EC50 (human HBV): 5 µM
- % Inhibition of DHBV DNA in duck hepatocytes EC50 μM ([2]; Table 3a): not active

Compound: [(−)-(6S)]-5-bromo-6-ethoxy-5,6-dihydro-3′-fluoro-2′,3′-dideoxyuridine [RB-4]
- EC50 (human HBV): 3 µM
- EC50 ([2]; Table 3a, read-out: % Inhibition of DHBV DNA in duck hepatocytes EC50): > 10 µM

From patent US7589077B2, “Antiviral nucleosides” (priority 2001, dated 2009)
